# Read-outs that look alike come from different tables or passages of the source.
# Test system: cancer cell lines
# Assay: Cancer cell proliferation activity (CellTiterGlo, 72 h)
# Assay type: cell-based
# Details: 72 h, 72 h, read-out: IC50 cell proliferation
# Procedure: Dose response relationships on cell proliferation was assessed for representative Compounds of the Disclosure on cancer cell lines. Briefly, compound treatment of cells started one day after seeding with a final DMSO concentration of 0.1%, and was performed by nanodrop-dispensing using a Tecan Dispenser. 0.1% DMSO (solvent) and Staurosporine (10 μM) served as high control (100% viability) and low control (0% viability), respectively.
# Cells were cultured in the appropriate media. For the assays, cells were seeded in white cell culture-treated flat and clear bottom multiwell plates and incubated at 37° C. overnight before compound was added. After incubation for 72 h at 37° C. at 5% or 10% CO2 dependent on the medium, cell plates were equilibrated to room temperature for one hour, CellTiterGlo reagent (Promega) was added and luminescence was measured approximately an hour later using a luminometer.
# Raw data were converted into percent cell viability relative to the high and low control, which were set to 100% and 0%, respectively.
# The IC50 values are summarized in Tables 9A-1, Table 10A, and Table 10B.
# [1] = Homo sapiens, A204, 72 h, A204 (muscle)
# [2] = Homo sapiens, ACHN, ACHN (kidney)
# [3] = Homo sapiens, ASPC1, 72 h, ASPC1 (pancreas)
# [4] = Homo sapiens, BXPC-3, 72 h, BXPC3 (pancreas)
# [5] = Homo sapiens, Caco-2, 72 h, CACO2 (colon)
# [6] = Homo sapiens, Granta-519, 72 h, GRANTA-519 (hematological)
# [7] = Homo sapiens, Kasumi 1, 72 h, KASUMI-1 (hematological)
# [8] = Homo sapiens, LoVo, LOVO (colon)
# [9] = Homo sapiens, MDA-MB-231, 72 h, MDAMB231 (breast)
# [10] = Homo sapiens, MDA-MB-436, 72 h, MDAMB436 (breast)
# [11] = Homo sapiens, MINO, MINO (hematological)
# [12] = Homo sapiens, SK-BR-3, 72 h, SKBR3 (breast)
SMILES,IC50 (5637 (bladder)),IC50 [1],IC50 [2],IC50 [3],IC50 [4],IC50 [5],IC50 [6],IC50 [7],IC50 [8],IC50 [9],IC50 [10],IC50 [11],IC50 [12],"IC50 (NCI-H358M, NCIH358M (lung))"
"Nc1nc(F)nc2c1ncn2[C@H]1C[C@H](O)[C@](CO)(C2CC2)O1 [Cpd. No. 5, (2R,3S,5R)-5-(6-amino-2-fluoro-9H-purin-9-yl)-2-cyclopropyl-2-(hydroxymethyl)tetrahydrofuran-3-ol]",4.93 µM,2.32 µM,3.67 µM,2.62 µM,> 50 µM,7.85 µM,> 50 µM,1.4 µM,2.75 µM,> 50 µM,2.9 µM,1.75 µM,1.06 µM,1.98 µM
"N#C[C@]1(CO)O[C@@H](n2cc(F)c(=O)[nH]c2=O)C[C@@H]1O [Cpd. No. 107, (2R,3S,5R)-5-(5-fluoro-2,4-dioxo-3,4-dihydropyrimidin-1(2H)-yl)-3-hydroxy-2-(hydroxymethyl)tetrahydrofuran-2-carbonitrile]",2.22 µM,> 50 µM,3.84 µM,1.58 µM,1 µM,> 50 µM,1.86 µM,> 50 µM,> 50 µM,> 50 µM,> 50 µM,2.34 µM,0.97 µM,> 50 µM
"C#C[C@]1(CO)O[C@@H](n2cc(Cl)c(N)nc2=O)C[C@@H]1O [Cpd. No. 109, 4-amino-5-chloro-1-((2R,4S,5R)-5-ethynyl-4-hydroxy-5-(hydroxymethyl)tetrahydrofuran-2-yl)pyrimidin-2(1H)-one]",0.01 µM,4.02 µM,1.26 µM,2.93 µM,0.5 µM,3.28 µM,0.92 µM,1.69 µM,2.54 µM,0.4 µM,3.49 µM,0.37 µM,0.98 µM,0.01 µM
"C[C@]1(CO)O[C@@H](n2cnc3c(O)nc(N)nc32)C[C@@H]1O [Cpd. No. 115, 2-amino-9-((2R,4S,5R)-4-hydroxy-5-(hydroxymethyl)-5-methyltetrahydrofuran-2-yl)-9H-purin-6-ol]",7.01 µM,0.63 µM,2.81 µM,> 50 µM,> 50 µM,> 50 µM,2.22 µM,2.13 µM,> 50 µM,3.4 µM,4.09 µM,1.72 µM,3.45 µM,1.07 µM
"Nc1nc(F)nc2c1ncn2[C@H]1C[C@H](O)[C@](CO)(CC2CC2)O1 [Cpd. No. 130, (2R,3S,5R)-5-(6-amino-2-fluoro-9H-purin-9-yl)-2-(cyclopropylmethyl)-2-(hydroxymethyl)tetrahydrofuran-3-ol]",2.06 µM,1.71 µM,3.83 µM,0.62 µM,3.28 µM,1.5 µM,5.22 µM,0.21 µM,0.49 µM,> 50 µM,0.53 µM,0.3 µM,0.12 µM,0.93 µM
"CC[C@]1(CO)O[C@@H](n2cnc3c(O)nc(N)nc32)C[C@@H]1O [Cpd. No. 223, 2-amino-9-((2R,4S,5R)-5-ethyl-4-hydroxy-5-(hydroxymethyl)tetrahydrofuran-2-yl)-9H-purin-6-ol]",> 50 µM,1.83 µM,> 50 µM,> 50 µM,> 50 µM,> 50 µM,1.4 µM,1.46 µM,> 50 µM,6.28 µM,> 50 µM,2.7 µM,> 50 µM,2.96 µM
"C#C[C@]1(CO)O[C@@H](n2cnc3c(=O)[nH]c(N)nc32)[C@H](F)[C@@H]1O [compound 95, 2-amino-9-((2R,3R,4R,5R)-5-ethynyl-3-fluoro-4-hydroxy-5-(hydroxymethyl)tetrahydrofuran-2-yl)-1,9-dihydro-6H-purin-6-one]",3.9 µM,1.35 µM,> 50 µM,4.62 µM,> 50 µM,> 50 µM,4.44 µM,1.63 µM,> 50 µM,1.69 µM,3.85 µM,2.54 µM,> 50 µM,1.59 µM
"O=c1[nH]c(=O)n([C@H]2C[C@H](O)[C@@H](CO)O2)cc1F [compound 185, 5-fluoro-1-((2R,4S,5R)-4-hydroxy-5-(hydroxymethyl)tetrahydrofuran-2-yl)pyrimidine-2,4(1H,3H)-dione]",0.001 µM,0.077 µM,0.004 µM,0.005 µM,0.002 µM,0.116 µM,0.002 µM,0.024 µM,0.007 µM,0.076 µM,0.006 µM,0.004 µM,0.001 µM,0.012 µM
